What is called IC50 is the concentration needed to halve the response being measured.

The subject of one experiment is IL2 promoter. In words: Human IL2 promoter reporter gene assay (RGA) in Jurkat cells. Particulars: […], heading: IL2 reporter gene assay IC50, anti-CD28 mAb + PMA stimulation 5.5 h. It is filed as cell-based. How it is done:
Human IL2 Promoter Reporter Gene Assay (RGA) in Jurkat Cells
The transfected Jurkat clone K22 290_H23 was propagated in RPMI 1640 supplemented with 10% heat inactivated fetal calf serum, 50 μM 2-mercaptoethanol and 1 mg/ml Geneticin. The cell concentration should not exceed 1×10e6/ml during culturing. The cells should not exceed passage 30. Prior to the assay the cells were washed and prepared to the concentration of 2×10e6 cells/ml.
Compound dilutions were made as 2×-concentrated solutions then diluted ½ by addition to cells. Two hundred and fifty μl of compound dilution and 250 μl of cells were mixed together in wells of a 96-deep well plate. Cells/compounds premix were incubated 30 min at 37° C. and 5% CO2 directly in the deep well plate.
After pre-incubation of cells with compounds, cells were stimulated with anti-CD28 mAb (clone 15E8) at 3 μg/ml+PMA at 1 μg/ml. Both co-stimulants were diluted in culture medium at a 10×-concentrated solution. 10 μl of co-stimulants were pipetted into the white 96-well plates and 100 μl of cell/compound mix was immediately added in duplicates. The cells were stimulated for 5.5 h at 37° C. and 5% CO2.
After cell stimulation, 50 μl of BriteLitePlus reagent (Perkin Elmer) was added to each well and the bioluminescence was measured with a Wallac EnVision reader (Perkin Elmer).
(In a reporter assay the amount or activity of a reporter protein is the signal.)
On to `CO[C@@H](C)c1c(NC(=O)Nc2cncc(C#N)c2)cnc2cc(Cl)nn12` [Example 8, (S)-1-(2-chloro-7-(1-methoxyethyl)pyrazolo[1,5-a]pyrimidin-6-yl)-3-(5-cyanopyridin-3-yl)urea], for which the IC50 worked out at 109 nM. On to `COC(c1ccccc1)c1c(NC(=O)Nc2cnc(-n3nccn3)c(Cl)c2)cnc2cc(Cl)nn12` (centres unmarked) [Example 49, 1-(5-chloro-6-(2H-1,2,3-triazol-2-yl)pyridin-3-yl)-3-(2-chloro-7-(methoxy(phenyl)methyl)pyrazolo[1,5-a]pyrimidin-6-yl)urea], for which the IC50 came out at 95 nM. Consider `COC(=O)c1cc(Cl)cc(NC(=O)Nc2cnc3cc(Cl)nn3c2[C@H](C)OC)c1` [Example 13, (S)-methyl 3-chloro-5-(3-(2-chloro-7-(1-methoxyethyl)pyrazolo [1,5-a]pyrimidin-6-yl)ureido)benzoate], for which the 50% inhibitory concentration (IC50) was 67 nM. Same read-out and setting: as for `CC(C)c1c(NC(=O)Nc2cnc(-c3ccnn3C)c(Cl)c2)cnc2cc(Cl)nn12` [Example 29, 1-(5-chloro-6-(1-methyl-1H-pyrazol-5-yl)pyridin-3-yl)-3-(2-chloro-7-isopropylpyrazolo[1,5-a]pyrimidin-6-yl)urea], the figure is 221 nM; as for `CO[C@@H](C)c1c(NC(=O)Nc2cnc(-n3nccn3)c(Cl)c2)cnc2cc(F)nn12` [Example 95, (S)-1-(5-chloro-6-(2H-1,2,3-triazol-2-yl)pyridin-3-yl)-3-(2-fluoro-7-(1-methoxyethyl)pyrazolo [1,5-a]pyrimidin-6-yl)urea], 60 nM. For `O=C(Nc1cnc(-n2nccn2)c(C(F)(F)F)c1)Nc1cnc2cc(Cl)nn2c1C1CCCO1` (centres unmarked) [Example 54, 1-(6-(2H-1,2,3-triazol-2-yl)-5-(trifluoromethyl)pyridin-3-yl)-3-(2-chloro-7-(tetrahydrofuran-2-yl)pyrazolo[1,5-a]pyrimidin-6-yl)urea], the 50% inhibitory concentration (IC50) was determined as 266 nM. As for `CCOc1ncc(NC(=O)Nc2cnc3cc(Cl)nn3c2C(C)C)cc1Cl` [Example 25, 1-(5-chloro-6-ethoxypyridin-3-yl)-3-(2-chloro-7-isopropylpyrazolo[1,5-a]pyrimidin-6-yl)urea], the IC50 is 248 nM.

With `COCC(OC)c1c(NC(=O)Nc2ccnc(C(F)(F)F)c2)cnc2cc(Cl)nn12` (centres unmarked) [Example 109, 1-(2-chloro-7-(1,2-dimethoxyethyl)pyrazolo[1,5-a]pyrimidin-6-yl)-3-(2-(trifluoromethyl)pyridin-4-yl)urea], the 50% inhibitory concentration (IC50) was found to be 199 nM. On the same count and under the same terms, as for `CC(C)c1c(NC(=O)Nc2ccc(-n3nccn3)c(Cl)c2)cnc2cc(Cl)nn12` [Example 20, l-(3-chloro-4-(2H-1,2,3-triazol-2-yl)phenyl)-3-(2-chloro-7-isopropylpyrazolo [1,5-a]pyrimidin-6-yl)urea], the figure is 100 nM; as for `CC(C)(c1c(NC(=O)Nc2ccnc(C(F)(F)F)c2)cnc2cc(Cl)nn12)C1CCOCC1` [Example 80, 1-(2-chloro-7-(2-(tetrahydro-2H-pyran-4-yl)propan-2-yl)pyrazolo[1,5-a]pyrimidin-6-yl)-3-(2-(trifluoromethyl)pyridin-4-yl)urea], 46 nM. For `Cc1cc2ncc(NC(=O)Nc3cnc(-n4nccn4)c(Cl)c3)c(C3(C)CCCO3)n2n1` (centres unmarked) [Example 104, 1-(5-chloro-6-(2H-1,2,3-triazol-2-yl)pyridin-3-yl)-3-(2-methyl-7-(2-methyltetrahydrofuran-2-yl)pyrazolo[1,5-a]pyrimidin-6-yl)urea], the 50% inhibitory concentration (IC50) came out at 134 nM.

Take `C[C@@H](OCc1ccccc1)c1c(NC(=O)Nc2cnc(-n3nccn3)c(C(F)(F)F)c2)cnc2cc(Cl)nn12` [Example 65, (R)-1-(6-(2H-1,2,3-triazol-2-yl)-5-(trifluoromethyl)pyridin-3-yl)-3-(7-(1-(benzyloxy)ethyl)-2-chloropyrazolo[1,5-a]pyrimidin-6-yl)urea]: the IC50 turned out to be 72 nM.

As to `CC1(c2c(NC(=O)Nc3cnc(-n4nccn4)c(Cl)c3)cnc3cc(Cl)nn23)CC1` [Example 16, 1-(5-chloro-6-(2H-1,2,3-triazol-2-yl)pyridin-3-yl)-3-(2-chloro-7-(1-methylcyclopropyl)pyrazolo[1,5-a]pyrimidin-6-yl)urea], the IC50 is 207 nM. On the same count and under the same terms, as for `COC(c1c(NC(=O)Nc2ccnc(C(F)(F)F)c2)cnc2cc(Cl)nn12)C1CCOCC1` (centres unmarked) [Example 90, 1-(2-chloro-7-(methoxy(tetrahydro-2H-pyran-4-yl)methyl)pyrazolo[1,5-a]pyrimidin-6-yl)-3-(2-(trifluoromethyl)pyridin-4-yl)urea], the figure is 14 nM; as for `COC[C@H](C)c1c(NC(=O)Nc2cnc(-n3nccn3)c(C(F)(F)F)c2)cnc2cc(Cl)nn12` [Example 111, (R)-1-(6-(2H-1,2,3-triazol-2-yl)-5-(trifluoromethyl)pyridin-3-yl)-3-(2-chloro-7-(1-methoxypropan-2-yl)pyrazolo[1,5-a]pyrimidin-6-yl)urea], 138 nM; as for `COCC1(c2c(NC(=O)Nc3cnc(-n4nccn4)c(Cl)c3)cnc3cc(C)nn23)CC1` [Example 78, 1-(5-chloro-6-(2H-1,2,3-triazol-2-yl)pyridin-3-yl)-3-(7-(1-(methoxymethyl)cyclopropyl)-2-methylpyrazolo[1,5-a]pyrimidin-6-yl)urea], 927 nM. Take `COCC1(c2c(NC(=O)Nc3cnc(-n4nccn4)c(Cl)c3)cnc3cc(Cl)nn23)CC1` [Example 76, 1-(5-chloro-6-(2H-1,2,3-triazol-2-yl)pyridin-3-yl)-3-(2-chloro-7-(1-(methoxymethyl)cyclopropyl)pyrazolo[1,5-a]pyrimidin-6-yl)urea]: the half-maximal inhibitory concentration (IC50) amounted to 47 nM.

As for `COc1ncc(NC(=O)Nc2cnc3cc(Cl)nn3c2C2CCC(C)O2)cc1Cl` (centres unmarked) [Example 87, 1-(5-chloro-6-methoxypyridin-3-yl)-3-(2-chloro-7-(5-methyltetrahydrofuran-2-yl)pyrazolo[1,5-a]pyrimidin-6-yl)urea], the 50% inhibitory concentration (IC50) stood at 41 nM. Turning to `CC(C)c1c(NC(=O)Nc2cnc(N3CCCS3(=O)=O)c(C(F)(F)F)c2)cnc2cc(Cl)nn12` [Example 27, 1-(2-chloro-7-isopropylpyrazolo[1,5-a]pyrimidin-6-yl)-3-(6-(1,1-dioxidoisothiazolidin-2-yl)-5-(trifluoromethyl)pyridin-3-yl)urea], the half-maximal inhibitory concentration (IC50) was 507 nM. On to `CN(C)C1(c2c(NC(=O)Nc3cnc(-n4nccn4)c(Cl)c3)cnc3cc(Cl)nn23)CC1` [Example 88, 1-(5-chloro-6-(2H-1,2,3-triazol-2-yl)pyridin-3-yl)-3-(2-chloro-7-(1-(dimethylamino)cyclopropyl)pyrazolo[1,5-a]pyrimidin-6-yl)urea], for which the 50% inhibitory concentration (IC50) amounted to 84 nM. With `CC(C)c1c(NC(=O)Nc2cnc(-n3nccn3)c(Cl)c2)cnc2cc(Cl)nn12` [Example 21, 1-(5-chloro-6-(2H-1,2,3-triazol-2-yl)pyridin-3-yl)-3-(2-chloro-7-isopropylpyrazolo[1,5-a]pyrimidin-6-yl)urea], the IC50 came to 307 nM.

On to `O=C(Nc1cnc(-n2nccn2)c(Cl)c1)Nc1cnc2cc(Cl)nn2c1C1CC12CCOC2` (centres unmarked) [Example 68, 1-(5-chloro-6-(2H-1,2,3-triazol-2-yl)pyridin-3-yl)-3-(2-chloro-7-(5-oxaspiro[2.4]heptan-1-yl)pyrazolo[1,5-a]pyrimidin-6-yl)urea], for which the IC50 was found to be 76 nM.

The same experiment, now with this note: anti-CD28 mAb + PMA stimulation 5.5 h.
Take `CO[C@@H](C)c1c(NC(=O)Nc2ccnc(C(F)(F)F)c2)cnc2cc(Cl)nn12` [Example 2, (S)-1-(2-chloro-7-(1-methoxyethyl)pyrazolo[1,5-a]pyrimidin-6-yl)-3-(2-(trifluoromethyl)pyridin-4-yl)urea]: the IC50 was determined as 51 nM.
